Measurements taken from US11548899B2, “Fused 1,4-oxazepines and related analogs as BET bromodomain inhibitors” (THE REGENTS OF THE UNIVERSITY OF MICHIGAN, priority 2016, dated 2023).
“And” between values parts separate entries of the source, which are not always exact repeats. Identical values can stand only once. Like-named read-outs stand apart in the source and are kept apart here.

How the values were obtained:
MOLM-13 = assay: Cell growth inhibition, 4-day proliferation assay, MOLM-13; format: cell-based; conditions: 4 days incubation, MOLM-13 cells, read-out: Cell Viability (IC50, μM) MOLM-13
Experimental: (§1) The effect of representative Compounds of the Disclosure on cell viability was determined in a 4-day proliferation assay. Cells were maintained in the appropriate culture medium with 10% FBS at 37° C. and an atmosphere of 5% CO2. All the cell lines were used within three months of thawing fresh vials.
(§2) Cells were seeded in 96-well flat bottom (Corning COSTAR, Corning, N.Y., cat #3595) or white opaque cell culture plates (BD Falcon, cat #353296) at a density of 3,000-10,000 cells/well in 75 μl of culture medium. Compounds were serially diluted in the appropriate medium, and 75 μl of the diluted compounds were added to the appropriate wells of the cell plate. After the addition of compounds, the cells were incubated at 37° C. in an atmosphere of 5% CO2 for 4 days. Cell viability was determined using the CellTiter-Glo® Luminescent Cell Viability Assay Kit (Promega, Madison, Wis.) for leukemia cells and WST (2-(2-methoxy-4-nitrophenyl)-3-(4-nitrophenyl)-5-(2,4-disulfophenyl)-2H-tetrazolium, monosodium salt) Cell Counting-8 Kit (Dojindo Molecular Technologies, Inc., Rockville, Md.) for adhenrent cells according to the manufacturers' instructions. […]
(§3) For CellTiter-Glo assay (suspension cells), 100 μl of CellTiter-Glo® Reagent was added to each well, and then the plates were incubated at room temperature for 10-20 minutes. The luminescent signal was measured using a Tecan Infinite M1000 multimode microplate reader (Tecan, Morrisville, N.C.). The readings were normalized to the DMSO-treated cells and the IC50 was calculated by nonlinear regression (four parameters sigmoid fitted with variable slope, least squares fit, and no constraint) analysis using the GraphPad Prism 5 software. See US 2014/0256706.

recombinant BRD4 BD2 = target: T1, recombinant BRD4 BD2 (Homo sapiens, UniProt O60885); assay: Competitive fluorescence-polarization (FP) binding assay, BRD4 BD2; conditions: protein 6 nM, probe 1.5 nM
T1 construct: recombinant BRD4 BD1 and BRD4 BD2 proteins
Experimental: Fluorescence Polarization (FP) competitive binding studies were carried out using a FAM labeled fluorescent probe, see Cpd. […] Equilibrium dissociation constants (Kd) values of the fluorescent probe to BRD4 BD1 and BD2 proteins were determined from protein saturation experiments by monitoring the total fluorescence polarization of mixtures composed with the fluorescent probe at a fixed concentration and proteins with increasing concentrations up to full saturation. Serial dilutions of testing proteins were mixed with the fluorescent probe to a final volume of 200 μl in the assay buffer (100 mM phosphate buffer, pH=6.5, 0.01% Triton X-100 (Sigma, 282103) being added right before assays). Final fluorescent probe concentration was 1.5 nM for both proteins. Plates were incubated at room temperature for 30 minutes with gentle shaking to assure equilibrium. FP values in millipolarization units (mP) were measured using the Infinite M-1000 plate reader (Tecan U.S., Research Triangle Park, N.C.) in Microfluor 1 96-well, black, round-bottom plates (Thermo Scientific, Waltham, Mass.) at an excitation wavelength of 485 nm and an emission wavelength of 530 nm.
The IC50 and Ki values of compounds were determined in a competitive binding experiment. […] Mixtures of 10 μl of the tested compounds in assay buffer with 40% Ethylene Glycol and 190 μl of preincubated protein/probe complex solution in the assay buffer (100 mM potassium phosphate, pH 6.5, 0.01% Triton X-100) were added into assay plates which were incubated at room temperature for 30 minutes with gentle shaking. Final concentrations of proteins were 10 and 6 nM in assays for BRD4 BD1 and BD2, respectively. Final probe concentration is 1.5 nM in both assays. […] FP values were measured as described above. IC50 values were determined by nonlinear regression fitting of the competition curves.

RS4-11 = assay: Cell growth inhibition, 4-day proliferation assay, RS4-11; format: cell-based; conditions: 4 days incubation, RS4-11 cells, read-out: Cell Viability (IC50, μM) RS4-11
Experimental: as §1, §2, §3

recombinant BRD4 BD1 = target: T2, recombinant BRD4 BD1 (Homo sapiens, UniProt O60885); assay: Competitive fluorescence-polarization (FP) binding assay, BRD4 BD1; conditions: FP competitive binding; protein 10 nM, probe 1.5 nM; read-out: IC50 (nM) BRD4 BD1
T2 construct: recombinant BRD4 BD1 and BRD4 BD2 proteins
Experimental: Fluorescence Polarization (FP) competitive binding studies were carried out using a FAM labeled fluorescent probe, see Cpd. […] Equilibrium dissociation constants (Kd) values of the fluorescent probe to BRD4 BD1 and BD2 proteins were determined from protein saturation experiments by monitoring the total fluorescence polarization of mixtures composed with the fluorescent probe at a fixed concentration and proteins with increasing concentrations up to full saturation. […] Plates were incubated at room temperature for 30 minutes with gentle shaking to assure equilibrium.
The IC50 and Ki values of compounds were determined in a competitive binding experiment. […] Mixtures of 10 μl of the tested compounds in assay buffer with 40% Ethylene Glycol and 190 μl of preincubated protein/probe complex solution in the assay buffer (100 mM potassium phosphate, pH 6.5, 0.01% Triton X-100) were added into assay plates which were incubated at room temperature for 30 minutes with gentle shaking. Final concentrations of proteins were 10 and 6 nM in assays for BRD4 BD1 and BD2, respectively. […] FP values were measured as described above. IC50 values were determined by nonlinear regression fitting of the competition curves.

Q: `Cc1sc2c(c1Nc1cc(C3CC3)nn1C)COCc1nnc(C)n1-2` [Cpd. No. 7, N-(3-cyclopropyl-1-methyl-H-pyrazol-5-yl)-2,9-dimethyl-4H,6H-thieno[2,3-e][1,2,4]triazolo[3,4-c][1,4]oxazepin-3-amine] was tested. Which IC50 (MOLM-13; Homo sapiens, MOLM-13, 96 h) did it give?
A: Its IC50 is 2.8 µM.

Q: And the IC50 (recombinant BRD4 BD2)?
A: Its IC50 is 1160 nM and 1260 nM.

Q: What about the IC50 (RS4-11; Homo sapiens, RS4-11, 96 h) of the same compound?
A: Its IC50 is 4.2 µM.

Q: What about the IC50 (recombinant BRD4 BD1) of the same compound?
A: Its IC50 is 171 nM and 311 nM.

Q: Which IC50 (MOLM-13; Homo sapiens, MOLM-13, 96 h) does the source give for `Cc1sc2c(c1Cc1ccccc1)CN(C(=O)OCc1ccccc1)[C@@H](C)c1nnc(C)n1-2` [Cpd. No. 12, benzyl (S)-3-benzyl-2,6,9-trimethyl-4H-thieno[3,2-f][1,2,4]triazolo[4,3-a][1,4]diazepine-5(6H)-carboxylate] here?
A: The IC50 was 4 µM.

Q: And the IC50 (recombinant BRD4 BD2)?
A: Its IC50 is 328 nM and 379 nM.

Q: And the IC50 (RS4-11; Homo sapiens, RS4-11, 96 h)?
A: The IC50 was 4.7 µM.

Q: And the IC50 (recombinant BRD4 BD1)?
A: The IC50 was 371 nM.

Q: For `Cc1sc2c(c1Cc1ccccc1)CN(C(=O)OCc1ccccc1)Cc1nnc(C)n1-2` [Cpd. No. 14, benzyl 3-benzyl-2,9-dimethyl-4H-thieno[3,2-f][1,2,4]triazolo[4,3-a][1,4]diazepine-5(6H)-carboxylate], which IC50 (MOLM-13; Homo sapiens, MOLM-13, 96 h) is on record?
A: The IC50 was 1.9 µM.

Q: And the IC50 (recombinant BRD4 BD2)?
A: The IC50 was 118 nM and 145 nM.

Q: What about the IC50 (RS4-11; Homo sapiens, RS4-11, 96 h) of the same compound?
A: The IC50 was 2.4 µM.

Q: And the IC50 (recombinant BRD4 BD1)?
A: Its IC50 is 85 nM and 112 nM.

Q: With `Cc1sc2c(c1Cc1ccccc1)CNCc1nnc(C)n1-2` [Cpd. No. 15, 3-benzyl-2,9-dimethyl-5,6-dihydro-4H-thieno[3,2-f][1,2,4]triazolo[4,3-a][1,4]diazepine] as the compound, how does the IC50 (MOLM-13; Homo sapiens, MOLM-13, 96 h) read?
A: The IC50 was 2 µM.

Q: What about the IC50 (recombinant BRD4 BD2) of the same compound?
A: Its IC50 is 102 nM and 111 nM.

Q: What about the IC50 (RS4-11; Homo sapiens, RS4-11, 96 h) of the same compound?
A: The IC50 was 2.7 µM.

Q: What about the IC50 (recombinant BRD4 BD1) of the same compound?
A: The IC50 was 531 nM and 751 nM.

Q: Which IC50 (MOLM-13) does the source give for `Cc1nnc2n1-c1sc(C#Cc3cnn(C)c3)c(Cc3ccccc3)c1CO[C@H]2C` [Cpd. No. 85, (S)-3-benzyl-6,9-dimethyl-2-((1-methyl-1H-pyrazol-4-yl)ethynyl)-4,6-dihydrothieno[2,3-e][1,2,4]triazolo[3,4-c][1,4]oxazepine] here?
A: The IC50 was 0.1 µM.

Q: What about the IC50 (MOLM-13; Homo sapiens, MOLM-13, 96 h) of the same compound?
A: The IC50 was 0.16 µM.

Q: What about the IC50 (recombinant BRD4 BD2) of the same compound?
A: Its IC50 is 48.3 nM and 60.3 nM.

Q: What about the IC50 (RS4-11) of the same compound?
A: Its IC50 is 0.12 µM.

Q: And the IC50 (RS4-11; Homo sapiens, RS4-11, 96 h)?
A: The IC50 was 0.14 µM.

Q: And the IC50 (recombinant BRD4 BD1)?
A: Its IC50 is 7.3 nM and 8.1 nM.

Q: For `Cc1nnc2n1-c1sc(C#Cc3ccc(N)nc3)c(Cc3ccccc3)c1COC2` [Cpd. No. 89, 5-((3-benzyl-9-methyl-4,6-dihydrothieno[2,3-e][1,2,4]triazolo[3,4-c][1,4]oxazepin-2-yl)ethynyl)pyridin-2-amine], which IC50 (MOLM-13; Homo sapiens, MOLM-13, 96 h) is on record?
A: Its IC50 is 0.28 µM.

Q: What about the IC50 (recombinant BRD4 BD2) of the same compound?
A: The IC50 was 315 nM.

Q: What about the IC50 (RS4-11; Homo sapiens, RS4-11, 96 h) of the same compound?
A: Its IC50 is 0.62 µM.

Q: And the IC50 (recombinant BRD4 BD1)?
A: The IC50 was 8.7 nM.

Q: Which IC50 (MOLM-13) does the source give for `Cc1sc2c(c1Cc1ccc(F)cc1)COCc1nnc(C)n1-2` [Cpd. No. 103, 3-(4-fluorobenzyl)-2,9-dimethyl-4H,6H-thieno[2,3-e][1,2,4]triazolo[3,4-c][1,4]oxazepine] here?
A: Its IC50 is 0.67 µM.

Q: What about the IC50 (MOLM-13; Homo sapiens, MOLM-13, 96 h) of the same compound?
A: Its IC50 is 1.1 µM.

Q: And the IC50 (recombinant BRD4 BD2)?
A: Its IC50 is 213 nM.

Q: And the IC50 (RS4-11)?
A: Its IC50 is 0.95 µM.

Q: What about the IC50 (RS4-11; Homo sapiens, RS4-11, 96 h) of the same compound?
A: Its IC50 is 1 µM.

Q: What about the IC50 (recombinant BRD4 BD1) of the same compound?
A: Its IC50 is 115 nM and 70.4 nM.

Q: Which results are given for `Cc1sc2c(c1Cc1ccccc1)COC(C)c1nnc(C)n1-2` (centres unmarked) [Cpd. No. 109, 3-benzyl-2,6,9-trimethyl-4H,6H-thieno[2,3-e][1,2,4]triazolo[3,4-c][1,4]oxazepine]?
A: IC50 (MOLM-13): 0.81 µM; IC50 (MOLM-13; Homo sapiens, MOLM-13, 96 h): 1.1 µM; IC50 (recombinant BRD4 BD2): 125 nM and 120 nM; IC50 (RS4-11; Homo sapiens, RS4-11, 96 h): 1 µM; IC50 (recombinant BRD4 BD1): 99.6 nM and 93.8 nM

Q: `Cc1nnc2n1-c1sc(C#N)c(Cc3ccccc3)c1COC2` [Cpd. No. 110, 3-benzyl-9-methyl-4H,6H-thieno[2,3-e][1,2,4]triazolo[3,4-c][1,4]oxazepine-2-carbonitrile] was tested. Which IC50 (MOLM-13; Homo sapiens, MOLM-13, 96 h) did it give?
A: The IC50 was 3.8 µM.

Q: What about the IC50 (recombinant BRD4 BD2) of the same compound?
A: The IC50 was 2320 nM.

Q: What about the IC50 (RS4-11; Homo sapiens, RS4-11, 96 h) of the same compound?
A: The IC50 was 3.5 µM.

Q: What about the IC50 (recombinant BRD4 BD1) of the same compound?
A: The IC50 was 634 nM.
